Columns and labels:
Type in all cases: in vivo
[1] = system: Solanum nigrum (SOLNI); assay: Test 1A glasshouse assay for herbicidal activity, post-emergence; settings: 312 h, evaluated after 13 days, read-out: percentage phytotoxicity SOLNI
Summary of the method: (§1)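 Seeds sown in standard soil were sprayed 1 day after sowing (pre-emergence) or after 8 days' growth (post-emergence) with the active ingredient in acetone/water (50:50) containing 0.5% Tween 20. Plants were kept in a glasshouse at 24/16 °C day/night, 14 h light, 65% humidity; phytotoxicity was scored visually after 13 days (0–100%).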

[2] = system: Ipomoea hederacea (IPOHE); assay: as above; settings: 312 h, evaluated after 13 days, read-out: percentage phytotoxicity IPOHE
Summary of the method: as §1

[3] = system: Brachiaria plantaginea (BRAPL); assay: Test 1B glasshouse assay for herbicidal activity, pre-emergence; settings: Urochloa plantaginea, 480 h, 20 DAA, read-out: percentage phytotoxicity BRAPL
Summary of the method: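 Percentage phytotoxicity (100% = total damage, 0% = none) was scored visually 15 days (post-emergence) or 20 days (pre-emergence) after spraying. Plants had been sprayed 1 day or about 12 days after sowing with compound formulated as IF50 and diluted in 0.2% v/v X-77, then grown at 24/18° C. day/night.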

[4] = system: Solanum nigrum (SOLNI); assay: Test 1A glasshouse assay for herbicidal activity, pre-emergence; settings: 312 h, evaluated after 13 days, read-out: percentage phytotoxicity SOLNI
Summary of the method: as §1

[5] = system: Ipomoea hederacea (IPOHE); assay: as above; settings: 312 h, evaluated after 13 days, read-out: percentage phytotoxicity IPOHE
Summary of the method: as §1

[6] = system: Echinochloa crus-galli (ECHCG); assay: Biological Example 2 comparative herbicidal data, post-emergence glasshouse screen; settings: 312 h, read-out: Post-emergence herbicidal activities (percentage phytotoxicity) ECHCG; for pest or weed control at 15.625 g/ha: 15.625 g/ha application rate; for pest or weed control at 62.5 g/ha: 62.5 g/ha application rate; for pest or weed control at 8 g/ha: 8 g/ha application rate; for pest or weed control at 30 g/ha: 30 g/ha application rate
Summary of the method: (§2)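 Plants grown 8 days in a glasshouse (24/16°C day/night, 14 h light, 65% humidity) were sprayed with compound in acetone/water (50:50) containing 0.5% Tween 20. They were kept under the same conditions and watered twice daily. Phytotoxicity was scored visually after 13 days (0 = no damage, 100 = total damage).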

[7] = system: Setaria faberi (SETFA); assay: as above; settings: 312 h, read-out: Post-emergence herbicidal activities (percentage phytotoxicity) SETFA; for pest or weed control at 15.625 g/ha: 15.625 g/ha application rate; for pest or weed control at 62.5 g/ha: 62.5 g/ha application rate; for pest or weed control at 8 g/ha: 8 g/ha application rate; for pest or weed control at 30 g/ha: 30 g/ha application rate
Summary of the method: as §2

[8] = system: Alopecurus myosuroides (ALOMY); assay: as above; settings: 312 h, read-out: Post-emergence herbicidal activities (percentage phytotoxicity) ALOMY; for pest or weed control at 15.625 g/ha: 15.625 g/ha application rate; for pest or weed control at 62.5 g/ha: 62.5 g/ha application rate; for pest or weed control at 8 g/ha: 8 g/ha application rate; for pest or weed control at 30 g/ha: 30 g/ha application rate
Summary of the method: as §2

[9] = system: Amarantus retroflexus (AMARE); assay: as above; settings: Amaranthus retroflexus, read-out: Post-emergence herbicidal activities (percentage phytotoxicity) AMARE; for pest or weed control at 8 g/ha: 8 g/ha application rate; for pest or weed control at 30 g/ha: 30 g/ha application rate
[10] = system: Abutilon theophasti Medik. (ABUTH); assay: as above; settings: read-out: Post-emergence herbicidal activities (percentage phytotoxicity) ABUTH; for pest or weed control at 8 g/ha: 8 g/ha application rate; for pest or weed control at 30 g/ha: 30 g/ha application rate
[11] = system: Abutilon theophasti Medik. (ABUTH); assay: Test 1A glasshouse assay for herbicidal activity, pre-emergence; settings: 312 h, evaluated after 13 days, read-out: percentage phytotoxicity ABUTH
Summary of the method: as §1

Row | Structure (SMILES) | pest or weed control at 250 g/ha [1] | pest or weed control at 250 g/ha [2] | pest or weed control at 250 g/ha [4] | pest or weed control at 250 g/ha [5] | pest or weed control at 8 g/ha [9] | pest or weed control at 30 g/ha [9] | pest or weed control at 8 g/ha [10] | pest or weed control at 30 g/ha [10] | pest or weed control at 250 g/ha [11] | pest or weed control at 8 g/ha [6] | pest or weed control at 30 g/ha [6] | pest or weed control at 8 g/ha [7] | pest or weed control at 30 g/ha [7] | pest or weed control at 8 g/ha [8] | pest or weed control at 30 g/ha [8] | also measured
1 | CC#Cc1ccc(C2C(=O)C3CCC(C3)C2=O)c(C)c1 (single isomer, unassigned) [Compound A-2] | 20% | 30% | 0% | 10% | – | – | – | – | – | – | – | – | – | – | – | pest or weed control at 500 g/ha [3]: 100%
2 | CC#Cc1ccc(C2C(=O)C(C)(C)OC(C)(C)C2=O)c(C)c1 [Compound A-1] | 30% | 90% | 0% | 0% | – | – | – | – | – | – | – | – | – | – | – | pest or weed control at 500 g/ha [3]: 90%; pest or weed control at 15.625 g/ha [6]: 20%; pest or weed control at 62.5 g/ha [6]: 90%; pest or weed control at 15.625 g/ha [7]: 20%; pest or weed control at 62.5 g/ha [7]: 40%; pest or weed control at 15.625 g/ha [8]: 10%; pest or weed control at 62.5 g/ha [8]: 80%
3 | CC#Cc1cc(C)c(C2C(=O)C3CCC(C3)C2=O)c(C)c1 (stereo not drawn) [Compound A-5] | – | – | – | – | 0% | 10% | 0% | 0% | 0% | 80% | 100% | 30% | 70% | 50% | 80% | pest or weed control at 500 g/ha [3]: 100%
4 | Cc1cc(C#CCl)cc(C)c1C1C(=O)C2CCC(C2)C1=O (stereo not drawn) [Compound A-6] | 20% | 20% | 20% | 10% | – | – | – | – | – | – | – | – | – | – | – | pest or weed control at 62.5 g/ha ([1]; 62.5 g/ha): 20%; pest or weed control at 62.5 g/ha ([2]; 62.5 g/ha): 30%; pest or weed control at 125 g/ha [3]: 80%; pest or weed control at 15.625 g/ha [6]: 90%; pest or weed control at 62.5 g/ha [6]: 100%; pest or weed control at 15.625 g/ha [7]: 90%; pest or weed control at 62.5 g/ha [7]: 90%; pest or weed control at 15.625 g/ha [8]: 70%; pest or weed control at 62.5 g/ha [8]: 70%
5 | Cc1cc(C#CCl)cc(C)c1C1C(=O)CC(CC2CCOCC2)CC1=O (stereo not drawn) [Compound A-8] | 80% | 70% | 70% | 30% | – | – | – | – | – | – | – | – | – | – | – | pest or weed control at 15.625 g/ha [6]: 90%; pest or weed control at 62.5 g/ha [6]: 100%; pest or weed control at 15.625 g/ha [7]: 80%; pest or weed control at 62.5 g/ha [7]: 90%; pest or weed control at 15.625 g/ha [8]: 70%; pest or weed control at 62.5 g/ha [8]: 80%
6 | CC#Cc1cc(C)c(C2C(=O)CC(CC3CCOCC3)CC2=O)c(C)c1 (stereo not drawn) [Compound A-9] | 80% | 50% | 70% | 20% | – | – | – | – | – | – | – | – | – | – | – | pest or weed control at 15.625 g/ha [6]: 100%; pest or weed control at 62.5 g/ha [6]: 100%; pest or weed control at 15.625 g/ha [7]: 80%; pest or weed control at 62.5 g/ha [7]: 90%; pest or weed control at 15.625 g/ha [8]: 80%; pest or weed control at 62.5 g/ha [8]: 90%
7 | CC#Cc1cc(C)c(C2C(=O)C3CCC(C3)C2=O)c(OC)c1 (stereo not drawn) [Compound A-10] | – | – | – | – | – | – | – | – | 0% | – | – | – | – | – | – | pest or weed control at 125 g/ha [3]: 80%
8 | CC#Cc1cc(Cl)c(C2C(=O)C3CCC(C3)C2=O)c(OC)c1 (stereo not drawn) [Compound A-12] | – | – | – | – | 0% | 0% | 10% | 40% | 0% | 90% | 100% | 50% | 90% | 40% | 90% | pest or weed control at 250 g/ha [3]: 100%; pest or weed control at 62.5 g/ha ([11]; 62.5 g/ha): 0%
9 | CC#Cc1cc(C)c(C2C(=O)CC(c3ccccn3)CC2=O)c(C)c1 (stereo not drawn) [Compound A-13] | – | – | – | – | 0% | 30% | 0% | 40% | 70% | 80% | 80% | 80% | 90% | 60% | 70% | pest or weed control at 250 g/ha [3]: 90%; pest or weed control at 30 g/ha ([11]; 30 g/ha): 30%
10 | CC#Cc1cc(C)c(C2=C(OC(=O)OC)CC(c3ccccn3)CC2=O)c(C)c1 (stereo not drawn) [Compound A-14] | – | – | – | – | – | – | – | – | 70% | – | – | – | – | – | – | pest or weed control at 250 g/ha [3]: 90%
11 | CC#Cc1cc(C)c(C2=C(OC(C)=O)CC(c3ccccn3)CC2=O)c(C)c1 (stereo not drawn) [Compound A-15] | – | – | – | – | – | – | – | – | 50% | – | – | – | – | – | – | pest or weed control at 125 g/ha [3]: 90%
12 | CC#Cc1cc(Cl)c(C2C(=O)C3CCC(C3)C2=O)c(OCC)c1 (stereo not drawn) [Compound A-16] | – | – | – | – | – | – | – | – | 70% | – | – | – | – | – | – | –
13 | CC#Cc1cc(Cl)c(C2C(=O)C3CCC(C)(C2=O)C3(C)C)c(OC)c1 (stereo not drawn) [Compound A-17] | – | – | – | – | – | – | – | – | 70% | – | – | – | – | – | – | –
14 | CC#Cc1cc(Cl)c(C2C(=O)CC3(CCOCC3)CC2=O)c(OC)c1 [Compound A-20, 9-(2-Chloro-6-methoxy-4-prop-1-ynyl-phenyl)-3-oxa-spiro[5.5]undecane-8,10-dione] | – | – | – | – | 10% | 80% | 50% | 80% | 80% | 100% | 100% | 90% | 100% | 90% | 100% | –
15 | CC#Cc1cc(C)c(C2C(=O)CC(CCSC)CC2=O)c(C)c1 (stereo not drawn) [Compound A-21, 2-(2,6-Dimethyl-4-prop-1-ynyl-phenyl)-5-(2-methylsulfanyl-ethyl)cyclohexane-1,3-dione] | – | – | – | – | 30% | 80% | 70% | 10% | 10% | 80% | 80% | 50% | 70% | 50% | 50% | –

From patent publication US9615577B2, “Herbicidally active cyclic dione compounds, or derivatives therefor, substituted by a phenyl which has an alkynyl-containing substituent” (Syngenta Limited, priority 2012, dated 2017)
